# Values quoted from earlier work as cited in patent US20230338413A1, “ORAL DELIVERY OF HEPARINS” (GUANGZHOU DAZHOU BIOMEDICINE LTD., priority 2021, published 2023).
smiles,measurement,setting,value
"O=C([O-])CCCCCCCNC(=O)c1ccccc1O.[Na+] [SNAC, sodium N-(8-(2-hydroxybenzoyl)amino)caprylate]",Effects on coagulation,"SNAC by itself, initial clinical studies",no effects on coagulation
same,"Measurements of anticoagulation (aPTT, TFPI and anti-Factors IIa and Xa levels)","human subjects, single oral dose: 30,000 USP Heparin Units alone or SNAC alone 1.4 to 10.5 g",did not change
